Experimental findings from ChEMBL document CHEMBL1201862, “PubChem BioAssay data set” (2004) are described below.

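Briefly, cells in 96-well plates were exposed to five compound concentrations for 48 h, and endpoints were estimated by linear interpolation. GI50 is the concentration that inhibits growth by half.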 Active and inactive are the calls of the source. No stated cut-off is given here; in the data, active = GI50 up to about 1.1 µM and inactive = higher.

Some test systems named below: TK-10; OVCAR-4; SNB-19; COLO 205; UACC-62; RPMI-8226; HOP-92; SK-OV-3; CCRF-CEM; OVCAR-8; OVCAR-3; A549; RXF 393; SF-295; 786-0; HL-60; LOX IMVI; SF-268.
What all share (test): NCI tumour cell line growth inhibition, 48 h

As for `NCc1cccc(O)c1O`, the GI50 in the assay with TK-10, in the assay with OVCAR-4, in the assay on SNB-19, in the assay on COLO 205, in the assay with UACC-62 and in the assay with RPMI-8226 was > 100 µM (inactive) throughout. Besides, the GI50 with HOP-92 was > 100 µM (inactive); with SK-OV-3, > 100 µM (inactive); in the assay with CCRF-CEM it was 55.3 µM (inactive); in the assay with OVCAR-8, > 100 µM (inactive); with OVCAR-3 it was > 100 µM (inactive); in the assay with A549, > 100 µM (inactive). Besides, the GI50 in the assay on RXF 393 is > 100 µM (inactive); in the assay on SF-295, > 100 µM (inactive); in the assay on 786-0, > 100 µM (inactive); with HL-60, 38.7 µM (inactive); with LOX IMVI, > 100 µM (inactive); with SF-268, > 100 µM (inactive).
In the case of `CCOC(=O)NN1C(=O)C(=P(c2ccccc2)(c2ccccc2)c2ccccc2)C(C(=O)OC)=C1C`, the GI50 in the assay with TK-10, with OVCAR-4, in the assay with SNB-19, in the assay on COLO 205, with UACC-62 and with RPMI-8226 was > 100 µM (inactive) in each case. Also, the GI50 in the assay on HOP-92, in the assay with SK-OV-3, with CCRF-CEM, in the assay with OVCAR-8, in the assay on OVCAR-3 and in the assay with A549 was > 100 µM (inactive) in each case. Moreover, the GI50 in the assay on RXF 393, in the assay on SF-295, in the assay on 786-0, with HL-60, with LOX IMVI and in the assay with SF-268 was > 100 µM (inactive) each time.
`C[C@]12CCC3c4ccc(OC(=O)c5ccccc5)cc4CC[C@H]3C1CC[C@@H]2OC(=O)C12OC1CCC2=O` (stereo partly specified): the GI50 is 18.7 µM (inactive) in the assay with TK-10; 5.41 µM (inactive) with OVCAR-4; 20.5 µM (inactive) in the assay on SNB-19; 2.84 µM (inactive) in the assay with COLO 205; 15.6 µM (inactive) in the assay with UACC-62; 4.23 µM (inactive) in the assay with RPMI-8226. Moreover, the GI50 in the assay on HOP-92 is 19.7 µM (inactive); in the assay with SK-OV-3, 15.8 µM (inactive); with CCRF-CEM, 0.959 µM (active); with OVCAR-8 it was 4.53 µM (inactive); in the assay with OVCAR-3, 3.13 µM (inactive); in the assay with A549, 5.64 µM (inactive). In addition, the GI50 was 2.41 µM (inactive) in the assay with RXF 393; 12.3 µM (inactive) in the assay with SF-295; 2.67 µM (inactive) with 786-0; 1.9 µM (inactive) in the assay on HL-60; 3.33 µM (inactive) in the assay on LOX IMVI; 2.68 µM (inactive) with SF-268.
On to `CCCCCCCCCCOC(=O)c1cc[n+](C)cc1`, for which the GI50 in the assay on TK-10 is 17.1 µM (inactive); in the assay with OVCAR-4, 18.1 µM (inactive); with SNB-19, 16.2 µM (inactive); with COLO 205 it was 16.7 µM (inactive); with UACC-62, 16.8 µM (inactive); in the assay with RPMI-8226, 16.3 µM (inactive). Moreover, the GI50 was 15.8 µM (inactive) in the assay with HOP-92; 16 µM (inactive) in the assay on SK-OV-3; 17.5 µM (inactive) in the assay with CCRF-CEM; 17.2 µM (inactive) in the assay with OVCAR-8; 15.6 µM (inactive) in the assay on OVCAR-3; 17 µM (inactive) with A549. Moreover, the GI50 is 19.7 µM (inactive) in the assay on RXF 393; 16.7 µM (inactive) with SF-295; 17.6 µM (inactive) in the assay on 786-0; 17.8 µM (inactive) in the assay on HL-60; 17.6 µM (inactive) with LOX IMVI; 20 µM (inactive) in the assay on SF-268.
With `COc1ccc2c(C3(O)CCNCC3)c[nH]c2c1`, the GI50 in the assay on TK-10, in the assay with OVCAR-4, with SNB-19, in the assay on COLO 205, in the assay with UACC-62 and in the assay with RPMI-8226 was > 100 µM (inactive) in each case. The GI50 with HOP-92, in the assay with SK-OV-3, with CCRF-CEM, with OVCAR-8, in the assay on OVCAR-3 and in the assay with A549 was > 100 µM (inactive) in each case. For the same molecule, the GI50 in the assay with RXF 393, with SF-295, with 786-0, in the assay with HL-60, in the assay with LOX IMVI and with SF-268 was > 100 µM (inactive) throughout.
For `CCCCCCCCCCCc1noc2c1C(=O)C(O)CC2` (stereo unspecified), the GI50 with TK-10 is 56.6 µM (inactive); with OVCAR-4 it was 16.6 µM (inactive); in the assay with SNB-19, 22.1 µM (inactive); in the assay with COLO 205, 30.5 µM (inactive); in the assay on UACC-62, 16.4 µM (inactive); in the assay on RPMI-8226 it was 25 µM (inactive). The GI50 was 20.1 µM (inactive) with HOP-92; 25.7 µM (inactive) with SK-OV-3; 25.1 µM (inactive) with CCRF-CEM; 18.9 µM (inactive) in the assay with OVCAR-8; 17.5 µM (inactive) with OVCAR-3; 22 µM (inactive) in the assay with A549. Besides, the GI50 in the assay on RXF 393 is 14.2 µM (inactive); in the assay with SF-295, 21.2 µM (inactive); with 786-0, 17.9 µM (inactive); in the assay with HL-60, 23.9 µM (inactive); with LOX IMVI, 18.1 µM (inactive); in the assay with SF-268 it was 38.5 µM (inactive).
Turning to `CCCCN(CCCC)C(=O)C(=O)CC(=O)/C=C/c1ccccc1`, the GI50 with TK-10, with OVCAR-4, with SNB-19, with COLO 205, with UACC-62 and in the assay with RPMI-8226 was > 100 µM (inactive) throughout. The GI50 with HOP-92, in the assay with SK-OV-3, with CCRF-CEM, with OVCAR-8, with OVCAR-3 and with A549 was > 100 µM (inactive) throughout. For the same molecule, the GI50 in the assay with RXF 393, in the assay on SF-295, in the assay with 786-0, in the assay with HL-60, in the assay with LOX IMVI and in the assay on SF-268 was > 100 µM (inactive) throughout.
For `CC1(C)CCc2cc3c(cc2O1)OCCC3=O`, the GI50 is > 100 µM (inactive) with TK-10; > 100 µM (inactive) in the assay on OVCAR-4; > 100 µM (inactive) with SNB-19; > 100 µM (inactive) in the assay on COLO 205; > 100 µM (inactive) in the assay with UACC-62; 96.2 µM (inactive) in the assay with RPMI-8226. The GI50 in the assay on HOP-92, with SK-OV-3, in the assay with CCRF-CEM, with OVCAR-8, in the assay on OVCAR-3 and in the assay on A549 was > 100 µM (inactive) throughout. The GI50 was > 100 µM (inactive) in the assay with RXF 393; > 100 µM (inactive) in the assay on SF-295; > 100 µM (inactive) with 786-0; 95.1 µM (inactive) with HL-60; > 100 µM (inactive) with LOX IMVI; > 100 µM (inactive) in the assay on SF-268.
For `C=C1C[C@]23C[C@@]1(O)CC[C@H]2[C@@]12C=C[C@H](O)[C@@](C)(C(=O)O1)[C@H]2[C@@H]3C(=O)O` [GIBBERELLIN A3], the GI50 in the assay on TK-10, in the assay with OVCAR-4, with SNB-19, in the assay on COLO 205, with UACC-62 and in the assay with RPMI-8226 was > 100 µM (inactive) in each case. For the same molecule, the GI50 in the assay on HOP-92, in the assay with SK-OV-3, in the assay on CCRF-CEM, with OVCAR-3, in the assay with A549 and in the assay on RXF 393 was > 100 µM (inactive) each time. For the same molecule, the GI50 in the assay with SF-295, in the assay with 786-0, with HL-60, in the assay on LOX IMVI and with SF-268 was > 100 µM (inactive) in each case.
For the molecule `CC1(O)C(C)(O)C(C)(O)C1(C)O` (stereo unspecified), the GI50 in the assay on TK-10, with OVCAR-4, with SNB-19, in the assay on COLO 205, in the assay on UACC-62 and in the assay with HOP-92 was > 100 µM (inactive) in each case. Besides, the GI50 in the assay on SK-OV-3, in the assay with CCRF-CEM, in the assay on OVCAR-8, with OVCAR-3, in the assay with A549 and in the assay on RXF 393 was > 100 µM (inactive) in each case. The GI50 in the assay with SF-295, with 786-0, in the assay on HL-60, in the assay with LOX IMVI and in the assay on SF-268 was > 100 µM (inactive) in each case.
For `COC(=O)N(C(=O)OC)C(C(=O)O)C(C)C` (stereo unspecified), the GI50 in the assay on TK-10 was > 100 µM (inactive); with OVCAR-4, > 100 µM (inactive); in the assay with SNB-19, > 100 µM (inactive); with COLO 205, > 100 µM (inactive); in the assay with HOP-92, 95.9 µM (inactive); in the assay on OVCAR-8, > 100 µM (inactive). Moreover, the GI50 with A549 was > 100 µM (inactive); in the assay on RXF 393 it was 65 µM (inactive); with SF-295, > 100 µM (inactive); in the assay on 786-0 it was > 100 µM (inactive); in the assay on HL-60, > 100 µM (inactive); in the assay with LOX IMVI it was > 100 µM (inactive). Moreover, the GI50 in the assay with SF-268 was > 100 µM (inactive).
